In BindingDB's records for doi:10.1016/s0960-894x(01)00543-1 (Harvard Medical School, 2001):

Assay: Binding affinity towards Opioid receptor delta 1 in guinea pig brain membranes using [3H]naltrindole as radioligand

In the case of `Oc1ccc2c(c1)C[C@@H]1[C@@H]3CCCCC23CCN1CCc1ccccc1` [17-phenethyl-(1R,9R,10R)-17-azatetracyclo[7.5.3.01,10.02,7]heptadeca-2(7),3,5-trien-5-ol], the Ki is reported as 3.1 nM.
For `COCCN1CCC23CCCC[C@H]2[C@H]1Cc1cc(O)ccc13` [MCL-110], the Ki was 0.54 nM.
With `Oc1ccc2c(c1)C[C@@H]1[C@@H]3CCCCC23CCN1Cc1ccco1` [MCL-119] the Ki was 8.5 nM.
Compound `O=C(CCN1CCC23CCCC[C@H]2[C@H]1Cc1cc(O)ccc13)c1cccs1` [3-[5-hydroxy-(1R,9R,10R)-17-azatetracyclo[7.5.3.01,10.02,7]heptadeca-2(7),3,5-trien-17-yl]-1-(2-thienyl)-1-propanone] has a Ki of 10 nM.
`Oc1ccc2c(c1)C[C@@H]1[C@@H]3CCCCC23CCN1CC1CCCCC1` [17-(N-cyclohexylmethyl)-(1R,9R,10R)-17-azatetracyclo[7.5.3.01,10.02,7]heptadeca-2(7),3,5-trien-5-ol] gave a Ki of 69 nM.
Compound `Oc1ccc2c(c1)C[C@@H]1[C@@H]3CCCCC23CCN1CCOc1ccccc1` [MCL-127] has a Ki of 33 nM.
With `N#CCCN1CCC23CCCC[C@H]2[C@H]1Cc1cc(O)ccc13` [2-[5-hydroxy-(1R,9R,10R)-17-azatetracyclo[7.5.3.01,10.02,7]heptadeca-2(7),3,5-trien-17-yl]ethyl cyanide] the Ki was 2.6 nM.
For `Oc1ccc2c(c1)C[C@@H]1[C@@H]3CCCC[C@]23CCN1C/C=C/I`, the Ki was 27 nM.
In the case of `O=C(CCN1CCC23CCCC[C@H]2[C@H]1Cc1cc(O)ccc13)c1ccccc1` [3-[5-hydroxy-(1R,9R,10R)-17-azatetracyclo[7.5.3.01,10.02,7]heptadeca-2(7),3,5-trien-17-yl]-1-phenyl-1-propanone], the Ki is reported as 23 nM.
`O=C(CCN1CCC23CCCC[C@H]2[C@H]1Cc1cc(O)ccc13)c1ccco1` [1-(2-furyl)-3-[5-hydroxy-(1R,9R,10R)-17-azatetracyclo[7.5.3.01,10.02,7]heptadeca-2(7),3,5-trien-17-yl]-1-propanone] gave a Ki of 42 nM.
`Oc1ccc2c(c1)C[C@@H]1[C@@H]3CCCCC23CCN1Cc1ccccc1` [17-benzyl-(1R,9R,10R)-17-azatetracyclo[7.5.3.01,10.02,7]heptadeca-2(7),3,5-trien-5-ol] gave a Ki of 420 nM.
Compound `CC(C)CN1CCC23CCCC[C@H]2[C@H]1Cc1cc(O)ccc13` [MCL-108] has a Ki of 5.6 nM.
`Oc1ccc2c(c1)C[C@@H]1[C@@H]3CCCCC23CCN1CCCF` [17-(3-fluoropropyl)-(1R,9R,10R)-17-azatetracyclo[7.5.3.01,10.02,7]heptadeca-2(7),3,5-trien-5-ol] showed a Ki of 0.85 nM.
For `N#CCCCN1CCC23CCCC[C@H]2[C@H]1Cc1cc(O)ccc13` [3-[5-hydroxy-(1R,9R,10R)-17-azatetracyclo[7.5.3.01,10.02,7]heptadeca-2(7),3,5-trien-17-yl]propyl cyanide], the Ki was 3.1 nM.
Compound `C=CCN1CCC23CCCC[C@H]2[C@H]1Cc1cc(O)ccc13` [17-allyl-(1R,9R,10R)-17-azatetracyclo[7.5.3.01,10.02,7]heptadeca-2(7),3,5-trien-5-ol] has a Ki of 4.1 nM.
Work on `Oc1ccc2c(c1)C[C@@H]1[C@@H]3CCCCC23CCN1CC1CCCC1` [17-cyclopentylmethyl-17-azatetracyclo[7.5.3.01,10.02,7]heptadeca-2(7),3,5-trien-5-ol] yielded a Ki of 6.9 nM.
Compound `Oc1ccc2c(c1)C[C@@H]1[C@@H]3CCCCC23CCN1CCC(O)c1ccccc1` (stereo partly specified) [MCL-121] has a Ki of 130 nM.
In the case of `Oc1ccc2c(c1)C[C@@H]1[C@@H]3CCCCC23CCN1CCC(F)(F)F` [17-(3,3,3-trifluoropropyl)-(1R,9R,10R)-17-azatetracyclo[7.5.3.01,10.02,7]heptadeca-2(7),3,5-trien-5-ol], the Ki is reported as 27 nM.
Compound `CCOCCN1CCC23CCCC[C@H]2[C@H]1Cc1cc(O)ccc13` [17-(2-ethoxyethyl)-(1R,9R,10R)-17-azatetracyclo[7.5.3.01,10.02,7]heptadeca-2(7),3,5-trien-5-ol] has a Ki of 5.6 nM.
With `Oc1ccc2c(c1)C[C@@H]1[C@@H]3CCCCC23CCN1CCC(O)c1ccco1` (stereo partly drawn) [1-(2-furyl)-3-[5-hydroxy-(1R,9R,10R)-17-azatetracyclo[7.5.3.01,10.02,7]heptadeca-2(7),3,5-trien-17-yl]-1-propanol] the Ki was 29 nM.
`Oc1ccc2c(c1)C[C@@H]1[C@@H]3CCCCC23CCN1CCC(O)c1cccs1` (stereo partly specified) [MCL-122] gave a Ki of 110 nM.
